Test results published in ChEMBL document CHEMBL1926654, “Design and synthesis of novel β-diketo derivatives as HIV-1 integrase inhibitors” (Bioorg Med Chem, 2012).
pEC50, pIC50: −log10 of the molar value.

Assays:
[1] = molecular target: Human immunodeficiency virus type 1 integrase (Human immunodeficiency virus 1, UniProt Q7ZJM1); assay: Inhibition of Human immunodeficiency virus 1 integrase-mediated strand transfer activity after 1 hr
[2] = tested on: Human immunodeficiency virus 1; assay: Antiviral activity against Human immunodeficiency virus 1 infected in human TZM-bl cells assessed as inhibition of viral replication after 48 hrs by inverted microscopic analysis; type: functional, organism-based; details: Human immunodeficiency virus 1, TZM-bl
[3] = Cytotoxicity against human TZM-bl cells after 48 hrs by MTT assay; type: cell-based
[4] = Therapeutic index, ratio of CC50 for human TZM-bl cells to EC50 for Human immunodeficiency virus 1; type: cell-based; details: read-out: Ratio CC50/EC50

Sequence of Human immunodeficiency virus type 1 integrase (Q7ZJM1 whole entry): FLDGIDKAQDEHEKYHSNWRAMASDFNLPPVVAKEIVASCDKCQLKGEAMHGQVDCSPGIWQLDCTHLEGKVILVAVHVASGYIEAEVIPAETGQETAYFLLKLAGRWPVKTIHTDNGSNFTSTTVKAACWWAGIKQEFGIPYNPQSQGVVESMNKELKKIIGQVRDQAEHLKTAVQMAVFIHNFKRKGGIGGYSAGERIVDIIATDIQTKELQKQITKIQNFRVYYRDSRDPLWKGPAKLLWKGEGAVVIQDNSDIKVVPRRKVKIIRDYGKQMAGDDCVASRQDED

Row | Structure (SMILES) | pIC50 [1] | pEC50 [2] | CC50 at 48 h [3] [µM] | selectivity ratio [4]
1 | Cc1nnc(C(=O)NC(C)(C)c2nc(C(=O)NCc3ccc(F)cc3)c(O)c(=O)n2C)o1 |  | 7.60 | > 30 | 
2 | Cc1c(C(=O)/C=C(\O)c2ccccc2)nnn1Cc1cccc(F)c1 | < 4.23 |  |  | 
3 | Cc1c(C(=O)/C=C(\O)c2ccc(O)c(O)c2)nnn1Cc1ccc(F)cc1 | 4.40 |  |  | 
4 | COc1ccc(/C(O)=C/C(=O)c2nnn(Cc3ccc(F)cc3)c2C)cc1OC | < 4.30 |  |  | 
5 | COc1ccc(/C(O)=C/C(=O)c2nnn(Cc3ccc(F)cc3)c2C)cc1 | < 4.27 |  |  | 
6 | COc1cc(/C(O)=C/C(=O)c2nnn(Cc3cccc(F)c3)c2C)cc(OC)c1OC | < 4.33 |  |  | 
7 | COc1cc(/C(O)=C/C(=O)c2nnn(Cc3ccc(F)cc3)c2C)cc(OC)c1OC | < 4.33 |  |  | 
8 | Cc1c(C(=O)/C=C(\O)c2cc(O)c(O)c(O)c2)nnn1Cc1cccc(F)c1 | 6.11 | 5.14 | 36.6 | 5
9 | COc1ccc(/C(O)=C/C(=O)c2nnn(Cc3cccc(F)c3)c2C)cc1 | < 4.27 |  |  | 
10 | COc1ccc(/C(O)=C/C(=O)c2nnn(Cc3cccc(F)c3)c2C)cc1OC | < 4.30 |  |  | 

More lines, main results first:

Row | pIC50 [1] | pEC50 [2] | Structure (SMILES) | CC50 at 48 h [3] [µM] | selectivity ratio [4]
11 | < 4.25 |  | Cc1c(C(=O)/C=C(\O)c2ccc(O)cc2)nnn1Cc1ccc(F)cc1 |  | 
12 | < 4.25 |  | Cc1c(C(=O)/C=C(\O)c2ccc(O)cc2)nnn1Cc1cccc(F)c1 |  | 
13 | 4.49 |  | Cc1c(C(=O)/C=C(\O)c2ccc(O)c(O)c2)nnn1Cc1cccc(F)c1 |  | 
14 | < 4.23 |  | Cc1c(C(=O)/C=C(\O)c2ccccc2)nnn1Cc1ccc(F)cc1 |  | 
15 | 5.59 | 5.05 | Cc1c(C(=O)/C=C(\O)c2cc(O)c(O)c(O)c2)nnn1Cc1ccc(F)cc1 | 33.4 | 3.7
